Test results published in patent publication US20130059324A1, “SYSTEMS AND METHODS FOR MECHANICALLY STRAINED CELL CULTURE” (THE UNIVERSITY OF KANSAS, priority 2010, published 2013).
Read-outs that look alike come from different tables or passages of the source.

What was measured:
[1] = test system: A549 cells; experiment: Drug exposure with or without simulated forces, 6-well Bioflex plates, live cell count and exponential growth model; type: cell-based, human; details: for Growth Rates, With forces / Growth Rates, Without forces: drug at IC90 for 3 days; for Growth Rates, With forces: 20% maximum strain, 15 cycles/minute; for Growth Rates, Without forces: no forces, negative = reduction in viable cell count; for Effectiveness of The Drug, Without forces (E) / Effectiveness of The Drug, With forces (Ef): percentage reduction in live cell counts; for Effectiveness of The Drug, Without forces (E): 3-day drug exposure at IC90, no forces; for Effectiveness of The Drug, With forces (Ef): 3-day drug exposure at IC90, simulated forces
Procedure: (§1) Treatments 1, 2 and 3 served as unstretched controls for Treatments 4, 5 and 6, respectively. For each cell line and drug, all treatments were independently repeated at least 3 times on different days, with 3 replicates per Treatments 1 and 4 (n=9) and 5 replicates per all other treatments (n=15).
Cells were passaged in 75 cm2 culture flasks at 37° C. in 5% CO2, and trypsinized using TryplE™ Express (Gibco) containing phenol red.
Cells were plated in 6-well Bioflex® plates (Flexcell® International Corporation, Hillsborough, N.C.). Each well of the plate has a flexible elastic membrane coated with a thin layer of type I collagen. Type I collagen was chosen since it more accurately represents the physiology of lung tumor cells in vivo. […] In Treatments 1, 2 and 3, NCI-H358 and A549 cells were plated at a density of 100,000 and 20,000 cells/well in 2 ml of corresponding media, respectively. For treatments involving simulated forces (Treatments 4-6), NCI-H358 and A549 cells were plated at a density of 170,000 and 35,000 cells/well, respectively.
(§2) After allowing the cells to adhere to the membrane for 24 hours, the plates assigned for simulated forces were stretched using the FX-4000 Tension plus unit (Flexcell® International Corporation, Hillsborough, N.C.). The Flexcell unit was configured to deliver an alternating positive and negative pressure beneath the cell culture surfaces. Negative pressure pulls the culture surface down over a stationary Delrin post on the baseplate, delivering a uniform biaxial strain to the cells, and subsequent application of positive pressure releases this distension (FIGS. 9A and 9B.) In this manner, the alternating positive and negative pressure simulates forces experienced during respiration. Culture plates experiencing forces were fitted with rubber gaskets and placed on circular loading stations in the baseplate.
After 72 hours of initial seeding, one of the five drugs was added to Treatments 3 and 6 of each cell line. […] To insure comparability, an aliquot of 1 ml of media without the drug was added to each well in Treatments 2 and 5. After adding the drug or 1 ml of media, the plates from Treatments 5 and 6 were placed back on the baseplate and subjected to the same force profile as before for the remaining 72 hours. Plates from Treatments 2 and 3 (without forces) were placed in the same incubator for the remaining 72 hours.
(§3) Cells were trypsinized and counted at the end of day 3 in Treatments 1 and 4, and at the end of day 6 in the other treatments, using a Beckman Coulter Vi-Cell Analyzer (Beckman Coulter, Fullerton, Calif.). To examine changes in morphology, microphotographs of A549 and NCI-H358 cells were taken at the end of Treatments 1, 2, 4 and 5 using an Olympus inverted microscope and a 10× objective.
The standard exponential cell growth model (28) was used to describe the changes in live cell counts after each treatment. According to this model, the cell count (e.g., N) at a particular time (e.g., t), is given by the equation:
N* is the initial cell count and λ is the cell growth rate. For each cell line, the following cell growth rates were estimated: λ=growth rate in the absence of forces and drugs, λd=growth rate in the presence of a particular drug but no forces, λXf=growth rate in the presence of forces but no drugs; and λfd=growth rate in the presence of forces and a particular drug. The growth rates λd and λfd were estimated for each tested drug. Using these growth rates and the exponential growth model, the final cell counts were mathematically modeled for each treatment under various conditions (FIG. 8). For each cell line, a linear regression model that combined the information from the 5 investigated drugs was built using Stata Statistical Software (StataCorp LP, Texas) after log-transforming the six equations listed in FIG. 8. The regression coefficients in the model were the growth rates.

[2] = test system: A549 cells; experiment: Prototype 96-well plate, viable cell count (Vi-Cell) with and without mechanical forces
Procedure: (§6) After allowing the cells to adhere to the flexible membrane of the 96 well plate for 24 hours, the loading pins and the system described in FIG. 7 to implement mechanical strain were used to deliver 20% maximum strain for 2 seconds to the plate assigned for mechanical forces (+M Group), followed by 2 seconds of rest (15 cycles per minute with an average strain of 10% per cycle) in keeping with a normal human respiration.
(§7) In a parallel experiments, the cells were treated with anti-tumor drug after 72 hours of initial seeding (after 48 hours of mechanical stretching). The drug was dissolved in dimethyl sulfoxide (DMSO) at stock concentration and added to the respective media. […] The IC90 concentrations of the drugs were then added to prototype plate.
(§8) The +M Group was subjected to continuous mechanical stretching while the −M Group plate was placed in the same incubator for additional 24 hours.
(§9) In order to quantify viability, 6 wells per treatment group for ViCell counter and 6 wells per condition for MTS were assigned to determine the cell viability. Using Vi-Cell counter, assigned wells were filled with extra 210 μl of media to keep the volume constant in all the wells. Media from the assigned wells were transferred into a 24-well plate, and the well location was recorded. About 50 μl of trypLE was added to each well and allowed to trypsinize for a maximum of ten minutes. A small amount of media from the 24-well plate was transferred back into corresponding wells of the prototype plate to collect detached cells.
(§10) Media and cells were transferred back into the corresponding well of the 24-well plate. All wells were brought to a final volume of 1.25 mL with PBS and mixed well. About 1 ml of this cell suspension was transferred to ViCell counter to determine the number of viable cells.

[3] = test system: H358 cells; experiment: as above; type: cell-based, human; details: for Effect of mechanical forces on viable cell count / cytotoxicity: 24 hours drug exposure, prototype 96-well plate; for Viable Cell Count after 24 hours of drug exposure, With forces (Ef) / Viable Cell Count after 24 hours of drug exposure, Without forces (E): drug at IC90, 24 hours; for Viable Cell Count after 24 hours of drug exposure, With forces (Ef): mechanical forces; for Viable Cell Count after 24 hours of drug exposure, Without forces (E): no forces
Procedure: as §6
In a parallel experiments, the cells were treated with anti-tumor drug after 72 hours of initial seeding (after 48 hours of mechanical stretching). The drug was dissolved in dimethyl sulfoxide (DMSO) at stock concentration and added to the respective media. An aliquot of 50 μl of drug stock solution was added to the well containing 100 μl of media (a 1:3 dilution) in a drug plate to get the desired IC90 concentration of the drug (Table 1). The IC90 concentrations of the drugs were then added to prototype plate.
as §8
In order to quantify viability, 6 wells per treatment group for ViCell counter and 6 wells per condition for MTS were assigned to determine the cell viability. Using Vi-Cell counter, assigned wells were filled with extra 210 μl of media to keep the volume constant in all the wells.

[4] = test system: NCI-H358 cells; experiment: Drug exposure with or without simulated forces, 6-well Bioflex plates, live cell count and exponential growth model; type: cell-based, human; details: for Growth Rates, With forces / Growth Rates, Without forces: drug at IC90 for 3 days; for Growth Rates, With forces: 20% maximum strain, 15 cycles/minute; for Growth Rates, Without forces: no forces; for Effectiveness of The Drug, Without forces (E) / Effectiveness of The Drug, With forces (Ef): percentage reduction in live cell counts; for Effectiveness of The Drug, Without forces (E): 3-day drug exposure at IC90, no forces; for Effectiveness of The Drug, With forces (Ef): 3-day drug exposure at IC90, simulated forces
Source text: as §1
The NCI-H358 (ATCC® CRL-5807) and A549 (ATCC® CCL-185) cell lines were obtained from American Type Culture Collection (ATCC, Manassas, Va.) and cultured in RPMI-1640 (NCI-H358) and HAM's F12K (A549) media containing 10% Fetal Bovine Serum (Sigma Aldrich, St. Louis, Mo.) and 1% Penicillin Streptomycin (Sigma Aldrich). Cells were passaged in 75 cm2 culture flasks at 37° C. in 5% CO2, and trypsinized using TryplE™ Express (Gibco) containing phenol red.
Cells were plated in 6-well Bioflex® plates (Flexcell® International Corporation, Hillsborough, N.C.). Each well of the plate has a flexible elastic membrane coated with a thin layer of type I collagen. Type I collagen was chosen since it more accurately represents the physiology of lung tumor cells in vivo. The Flexcell is not configured for drug studies as described herein, and had to be modified as described herein. […] Therefore, to have the same number of cells in culture at the time of drug exposure, initial seeding densities for treatments not involving simulated forces (Treatments 1-3) and those involving forces (Treatments 4-6) were adjusted for each cell line. In Treatments 1, 2 and 3, NCI-H358 and A549 cells were plated at a density of 100,000 and 20,000 cells/well in 2 ml of corresponding media, respectively. For treatments involving simulated forces (Treatments 4-6), NCI-H358 and A549 cells were plated at a density of 170,000 and 35,000 cells/well, respectively.
as §2, with “baseplate. […] Cells were preconditioned with mechanical forces for 48 hours, in an incubator at 37° C., 5% CO2 and 95% relative humidity.” for “baseplate.”
(§4) After 72 hours of initial seeding, one of the five drugs was added to Treatments 3 and 6 of each cell line. […] The IC90, concentration of the drug that inhibits the growth of 90% of the cells in a static monolayer culture, was used to assure a significant inhibition in the absence of simulated forces. To insure comparability, an aliquot of 1 ml of media without the drug was added to each well in Treatments 2 and 5. After adding the drug or 1 ml of media, the plates from Treatments 5 and 6 were placed back on the baseplate and subjected to the same force profile as before for the remaining 72 hours. Plates from Treatments 2 and 3 (without forces) were placed in the same incubator for the remaining 72 hours.
as §3
The standard exponential cell growth model (28) was used to describe the changes in live cell counts after each treatment. […]

[5] = test system: cells in a static monolayer culture; experiment: IC90 in static monolayer culture (tested concentration); type: cell-based; details: concentration that inhibits the growth of 90% of the cells in a static monolayer culture
Procedure: Table 1 includes a list of investigated chemotherapeutic drugs, their mechanisms of action and the tested concentrations.
as §4

[6] = test system: A549 cells; experiment: Prototype 96-well plate, MTS assay with and without mechanical forces; type: cell-based, human
Procedure: (§5) The prototype plate was read using the Biotek plate reader at the wavelength of 490 nm until the media only wells absorbance reached 1.0. For the +M group plate, 30 ul of MTS was added to the assigned wells and kept in the incubator for the same amount of time that required for the −M group to develop and read at the same wavelength.

[7] = test system: H358 cells; experiment: as above; type: cell-based, human; details: drug at IC90, 24 hours, 490 nm; for MTS absorbance after 24 hours of drug exposure, With forces (Ef): mechanical forces; for MTS absorbance after 24 hours of drug exposure, Without forces (E): no forces
Procedure: as §5

[8] = test system: A549 cells
Procedure: as §6, §7, §8, §9, §10

Row | SMILES | Growth Rates, With forces [1] [per day] | Growth Rates, Without forces [1] [per day] | Effectiveness of The Drug, Without forces (E) [1] [%] | Effectiveness of The Drug, With forces (Ef) [1] [%] | Effect of mechanical forces on viable cell count / cytotoxicity [3] | Viable Cell Count after 24 hours of drug exposure, With forces (Ef) [3] | Viable Cell Count after 24 hours of drug exposure, Without forces (E) [3] | Growth Rates, With forces [4] [per day] | Growth Rates, Without forces [4] [per day] | Effectiveness of The Drug, Without forces (E) [4] [%] | Effectiveness of The Drug, With forces (Ef) [4] [%] | IC90 [5] [µM] | MTS absorbance after 24 hours of drug exposure, With forces (Ef) [7] | MTS absorbance after 24 hours of drug exposure, Without forces (E) [7] | other results
1 | COc1cc2c(Nc3ccc(Br)cc3F)ncnc2cc1OCC1CCN(C)CC1 [Zactima] | −0.398 | −0.055 | 86.8 | 85.6 | decrease in the ability | 11000.0 | 22000.0 | −0.833 | −0.163 | 81.6 | 93.7 | 50 | 0.368 | 0.536 | Effect of mechanical forces on viable cell count / cytotoxicity ([2]; 24 hours drug exposure, prototype 96-well plate): remained unaffected; Viable Cell Count after 24 hours of drug exposure, With forces (Ef) ([2]; drug at IC90, 24 hours, mechanical forces): 15625.0; Viable Cell Count after 24 hours of drug exposure, Without forces (E) ([2]; drug at IC90, 24 hours, no forces): 23333.3; Effectiveness of The Drug, Without forces (E) ([4]; listed as P00006): 81.6%; Effectiveness of The Drug, With forces (Ef) ([4]; listed as P00006): 93.7%; MTS absorbance after 24 hours of drug exposure, With forces (Ef) ([6]; A549, drug at IC90, 24 hours, 490 nm, mechanical forces): 0.307; MTS absorbance after 24 hours of drug exposure, Without forces (E) ([6]; A549, drug at IC90, 24 hours, 490 nm, no forces): 0.495
2 | COc1cccc2c1C(=O)c1c(O)c3c(c(O)c1C2=O)C[C@@](O)(C(=O)CO)C[C@@H]3O[C@H]1C[C@H](N)[C@H](O)[C@H](C)O1 [Doxorubicin] | −0.268 | −0.170 | 90.7 | 78.7 | decrease in the ability | 7500.0 | 17750.0 | −0.357 | −0.031 | 72.7 | 73.9 | 30 | 0.488 | 0.629 | Effect of mechanical forces on viable cell count / cytotoxicity [8]: Statistically significant reduction; MTS absorbance after 24 hours of drug exposure, With forces (Ef) [6]: 0.430; MTS absorbance after 24 hours of drug exposure, Without forces (E) [6]: 0.697
3 | N.N.[Cl][Pt][Cl] [Cisplatin] | −0.211 | −0.204 | 91.6 | 74.7 | – | – | – | −0.233 | −0.027 | 72.4 | 62.1 | 50 | – | – | Effectiveness of The Drug, Without forces (E) ([1]; listed as P00004): 91.6%; Effectiveness of The Drug, With forces (Ef) ([1]; listed as P00004): 74.7%
